Earlier results, collected in patent US20090062907A1, “Self-expanding valve for the venous system” (priority 2007, published 2009).

In the case of C[C@H](CCC(=O)O)[C@H]1CC[C@H]2[C@@H]3CC[C@@H]4C[C@H](O)CC[C@]4(C)[C@H]3C[C@H](O)[C@]12C [Deoxycholic acid], the solubility in alcohol (alcohol) is given as “soluble” and the solubility in water (water) is given as “sparingly soluble”.
